In patent US4599336A, “Derivatives of (E)-3-(4-oxo-4H-quinazolin-3-yl)-2-propenamide” (Hoffmann-La Roche Inc., priority 1983, dated 1986):

Key:
[1] = test system: SRS-A-induced constriction of the guinea pig ileum; test: Guinea Pig Ileum, In Vitro (inhibition of SRS-A-induced constriction); format: cell-based; conditions: Cavia porcellus; SRS-A-induced constriction; in vitro; read-out: Guinea Pig Ileum, IC50
Description: The guinea pig ileum bioassay system has been described by Orange and Austen, Adv. Immunol. […] A 1.5 cm segment is removed from animals weighing 300-400 g. and suspended in an organ bath containing 10 ml. of Tyrodes solution with 10^-6 M atropine sulfate and 10^-6 M pyrilamine maleate. […] The SRS-A utilized in this screen is obtained by challenging chopped lung fragments from actively sensitized guinea pigs with egg albumin, in vitro. A dose-response curve to SRS-A challenge is established for the ileum. […] The drug concentration which inhibits, by 50%, the SRS-A-induced constriction of the guinea pig ileum is determined.

TXA2 synthase = biological target: T1, TXA2 synthase (Homo sapiens, UniProt P24557); test: Thromboxane Synthase Inhibition, In Vitro; format: biochemical; conditions: human platelet microsomes; for inhibition at 0.1 µM: at 10^-7 M
T1 construct: using microsomal fractions from human platelets as enzyme source; from tissue; host or cells: human platelets, microsomal fraction
T1 sequence (P24557 1-533): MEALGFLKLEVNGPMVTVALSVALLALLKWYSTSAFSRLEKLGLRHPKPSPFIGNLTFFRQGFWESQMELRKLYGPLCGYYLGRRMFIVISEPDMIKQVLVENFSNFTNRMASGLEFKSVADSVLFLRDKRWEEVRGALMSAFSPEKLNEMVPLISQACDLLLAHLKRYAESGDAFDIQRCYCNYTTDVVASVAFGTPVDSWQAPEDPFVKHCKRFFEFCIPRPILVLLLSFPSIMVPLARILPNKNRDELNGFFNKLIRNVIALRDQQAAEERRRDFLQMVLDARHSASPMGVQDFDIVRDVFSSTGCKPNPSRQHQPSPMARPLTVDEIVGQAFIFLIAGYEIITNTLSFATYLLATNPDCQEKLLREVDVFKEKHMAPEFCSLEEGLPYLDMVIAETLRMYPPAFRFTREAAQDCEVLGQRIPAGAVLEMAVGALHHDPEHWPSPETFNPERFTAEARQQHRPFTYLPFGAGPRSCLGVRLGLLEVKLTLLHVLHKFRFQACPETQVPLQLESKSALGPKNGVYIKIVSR
Description: TXA2 synthase activity is measured by following the conversion of ^14 C-prostaglandin endoperoxide (PGH2) to ^14 C-thromboxane A2 (TXA2) using microsomal fractions from human platelets as enzyme source. In the aqueous incubation medium, the TXA2 decomposes rapidly into TXB2. The amount of TXA2 synthase is adjusted so that under the conditions of the assay approximately 80-90% of the substrate, PGH2, is converted to product in control tubes. To prepare ^14 C--PGH2, ^14 C--AA (50-60 mCi/mmole; Rose Chem.) is incubated with sheep seminal vesicular gland microsomes for 1.5 minutes at 37° C. and then the ^14 C--PGH2 is extracted with diethylether, purified on columns of Sephadex LH-20 or silicic acid, and stored in acetone at -70° C. Incubations are done as follows. Sufficient ^14 C--PGH2 to yield a final substrate concentration of 10 μM (30,000 cpm) is added to the incubation tubes and then the acetone is removed under nitrogen. The tubes are placed in an ice bath and then 215 μl of ice cold phosphate buffered saline, 10 μl of ethanol (control) or of test drug in ethanol, and 25 μl of the microsomal suspension are added with mixing in that order as rapidly as possible. The tubes are incubated at 22° C. for 2 minutes, the reaction is stopped and then the radioactive products and the uncoverted PGH2 are extracted and analyzed by thin layer chromatography. […] The amount of ^14 C--PGH2 converted to products was used as a measure of TXA2 synthase activity. Inhibitors were tested initially at a final concentration of 100 μM. Results obtained with representative compounds of the present invention in this assay are summarized hereafter in Table I.

IC50 [1] | inhibition at 0.1 µM (TXA2 synthase) | IC50 (TXA2 synthase; read-out: TXA2 Synthase Inhibition (concentration bound printed in the % column)) | SMILES
1 µM | 48% |  | CC(C)c1ccc2ncn(/C=C/C(=O)NCCCCc3cccnc3)c(=O)c2c1 [drawing 12]
5 µM | 72% |  | CC(C)c1ccc2ncn(/C=C/C(=O)NCCCCn3ccnc3)c(=O)c2c1 [drawing 15]
> 10 µM |  | > 10 µM | CC(C)c1ccc2ncn(/C=C/C(=O)NCCCCc3ccccn3)c(=O)c2c1 [drawing 17]
